From paper PMC10762078, “Role of UPF1-LIN28A interaction during early differentiation of pluripotent stem cells” (Nature Communications, 2024)
Ends that are not written are not given here.

Legend:
UPF1-LIN28A interaction = assay: Proximity ligation assay (PLA) of UPF1-LIN28A complexes; type: cell-based; settings: LIN28A-overexpressing HeLa and CHA15 cells, n = 3
Experimental: The in situ proximity ligation assay (PLA) was performed on fixed and permeabilised cells using Duolink In Situ Red kit mouse/rabbit (Sigma-Aldrich, DUO92101), according to the manufacturer’s protocol. Briefly, fixed and permeabilised cells were incubated with a blocking solution for 1 h at 37 °C and then incubated with the following primary antibodies: anti-UPF1 (Cell Signaling Technology, 12040; 1:200) and LIN28A (Cell Signaling Technology, 5930; 1:200) overnight at 4 °C. After incubation, the coverslips were washed twice with 1× buffer A, followed by incubation with PLA probes for 1 h at 37 °C. After washing twice with 1× buffer A for 5 min, the coverslip was incubated with the ligation solution for 30 min at 37 °C. Coverslips were washed twice with 1× buffer A, followed by an amplification step with polymerase for 100 min at 37 °C. Finally, the coverslip was washed twice with 1× buffer B and once with 0.01× buffer B and then mounted in […] with DAPI mounting medium (Vector Laboratories, H1200).
Immunofluorescence staining, proximity ligation assay imaging, and cell-penetrating efficiency of CPP-FITC were imaged with a confocal laser scanning microscope (Leica, TSC SP5) or immunofluorescence microscope (Leica, DM5000B). Z-stacks were captured, with sections spanning the entire cell. […]

His-LIN28A = target: T1, His-LIN28A (Homo sapiens, UniProt Q9H9Z2); assay: SPR analyte-ligand binding screening of eight peptides (P1-P8); settings: SPR screening at 15 μM, 3 min association, 6 min dissociation
T1 construct: purchased LS-bio LS-G637
T1 sequence (Q9H9Z2 1-209): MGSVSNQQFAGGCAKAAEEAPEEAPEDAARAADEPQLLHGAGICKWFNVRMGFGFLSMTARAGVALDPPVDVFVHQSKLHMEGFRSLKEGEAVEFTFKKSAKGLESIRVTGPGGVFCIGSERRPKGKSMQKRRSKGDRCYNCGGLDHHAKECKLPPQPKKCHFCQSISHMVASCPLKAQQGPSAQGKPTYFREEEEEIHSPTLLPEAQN
Experimental: For ligand immobilisation, the nitrilotriacetic acid (NTA) surface gold sensor chip (icluebio) was activated with 5 mM NiCl2 (Xantec) at a flow rate of 30 μL/min, following equalisation with 1× HBS-T buffer. His-LIN28A (LS-bio, LS-G637) was used as a ligand protein and was applied to a sensor chip at a flow rate of 10 μL/min for 40 min after dilution in 1× HEPES-buffered saline (HBS-T) buffer at a 1/20 ratio. Approximately 1000 resonance units (RU) were bonded to the sensor chip after ligand immobilisation. RU was measured using iMSPR-ProX (icluebio). An indigenous NTA sensor chip was used as a reference channel.
Analyte-ligand binding screening was performed by tethering the ligand and reference channels in the connected mode. […] After equalisation with 1× HBS-T buffer, the sensor chip was treated with each peptide for 3 min and then for 6 min with 1× HBS-T buffer for peptide dissociation.

[1] = tested on: human fetal neural stem cells (VM-NSCs or CTX-NSCs); assay: H2O2-stressed human fetal neural stem cells: survival and neuronal markers (peer review file); type: cell-based; settings: compared with CPP-P1
Text: 4. In addition to identifying the differentiation markers, what are the effects of LIN28A-UPF1 interactions on the functional differentiation phenotypes?
We observed that the levels of stem cell markers, POU5F1 (OCT4) and NANOG, were reduced when UPF1 and LIN28A interaction was disrupted by the […]
To determine the effects of CPP-P8 during […]
split every 4~6-days. After CPP-P8 treatment, the cell phenotypes treated with CPP-P8 looked more like the spontaneous differentiated cells than the ones treated with CPP-P1 and CPP-P2 (Fig. 6c and Supplementary Fig. 6b in the revised manuscript).
The final experiment to determine the functional phenotypes used treated human fetal neural stem cells (ventral midbrain (VM)-NSCs or cortex (CTX)-NSCs), which was stressed by H2O2, with the peptides (CPP-P1 or P8), and differentiation to neurons was initiated. The immunofluorescence results […]
neuron markers, Tyrosine hydroxylase (TH) and TUJ1 compared with CPP-P1 treatment. We are preparing another manuscript to show the effects of CPP-P8 on neuronal differentiation, we would like […]
We hope our additional experiments have addressed the reviewer’s concern.
Original Manuscript Revised Manuscript
Fig. 1e Supplementary Fig. 6b
(1 picture or pasted object on this page, not shown here)

[2] = tested on: nonsense-mediated mRNA decay (NMD); assay: NMD reporter (Gl, GPx1) mRNA by RT-qPCR in LIN28A-expressing HeLa cells with CPP-peptides (Fig. 5c); type: cell-based; settings: FLAG control (no LIN28A) HeLa, CPP-peptide

KKKWCRKKKSSADEKRYRALKRTAERELLMNA [CPP-P8, CPP conjugated to P8]
PLA signal of UPF1-LIN28A complexes (UPF1-LIN28A interaction): weaker signals than CPP-P1 or -P2

KKKWCRKKKSSADEKRYRALKRTAERELLMNA [P8]
binding affinity vs others (His-LIN28A): significantly
cell survival ([1]; DAPI staining): increased cell survival (DAPI staining)
dopaminergic neuron markers TH and TUJ1 [1]: upregulated dopaminergic

N-QKLDQKELQLEPM-C [P1, reference compound]
relative GPx1 mRNA level ([2]; normalised to MUP, replicate set2): 1.035
relative Gl mRNA level ([2]; normalised to MUP, replicate set3): 1.014
GPx1 mRNA, mean ([2]; mean in t-test output, n = 3): 0.2656
Gl mRNA, mean ([2]; mean in t-test output, n = 3): 0.4223
